Legend:
VSVΔ51 in 786-0 cells = type: cell-based, human
[1] = tested on: oncolytic HSV-1 expressing GFP in 786-0 cancer cells; type: cell-based, human
[2] = tested on: VSVΔ51-GFP in CT26 murine colon cancer tumors; type: cell-based, mouse
MG1-eGFP in 786-0 cells = type: cell-based, human
[3] = tested on: ICPO-null HSV-N212eGFP in 786-0 cells; type: cell-based, human; settings: MOI 0.01, 48 h after infection
786-0 cells = settings: human
[4] = mouse; for Plasma stab. % remaning at 3 hrs: Balb/c, pH 7.4
[5] = female, Balb/c, mouse, in vivo
VSVΔ51 = settings: cited from earlier work
physchem [6] = settings: buffer
physchem [7] = settings: buffer, pH 7.4
[8] = tested on: VSVΔ51-FLuc in CT26 tumors; set-up: species or system Balb/c mice; settings: mouse, in vivo
[9] = tested on: VSVΔ51-GFP in normal mouse brain, lung and spleens

Row | Compound | LD50 (786-0 cells) | Plasma stab. % remaning at 3 hrs [4] | half-life (physchem [6]) | other results
1 | O=C1OC(c2ccccc2)C(Cl)=C1Cl (centres unmarked) [Compound 1, 3,4-dichloro-5-phenyl-2,5-dihydrofuran-2-one, reference compound] | 79 µM | 0% | < 5 min | enhancement of viral titers after pre-incubation of compound in media (VSVΔ51 in 786-0 cells): did not lead to robust enhancement of viral titers; growth of oncolytic HSV-1 expressing GFP [1]: increased growth; VSVΔ51-GFP titers / replication in tumor specimens [2]: enhanced; GFP counts, MG1-eGFP (MG1-eGFP in 786-0 cells): increased GFP counts; GFP counts, HSV-N212eGFP [3]: increased GFP counts; dose at which toxicity starts ([5]; ip): ≥ 10 mg/kg; increase of virus output (VSVΔ51): ≤ 1,000 fold; half-life (physchem [7]): 28.8 min
2 | O=C1OC(c2ccccc2)C(Br)=C1Br (centres unmarked) [Compound 2] | 87 µM | 0% | < 5 min | 
3 | O=C1OC(c2ccccc2)C(NCc2ccccc2)=C1Cl (centres unmarked) [Compound 3] | 140 µM | 65.6 ± 6.5% |  | 
4 | CC(C)CNC1=C(Cl)C(=O)OC1c1ccccc1 (centres unmarked) [Compound 4] | 90 µM | 0% |  | 
5 | O=C1OCC(Cl)=C1Cl [Compound 5, 3,4-Dichloro-5H-furan-2-one] | 41 µM | 0% | < 5 min | 
6 | COC1OC(=O)C(Cl)=C1Cl (centres unmarked) [Compound 6] | 73 µM | 0% | < 5 min | 
7 | C#CCOC1OC(=O)C(Cl)=C1Cl (centres unmarked) [Compound 7] | 52 µM | 0% | < 5 min | 
8 | O=c1[nH]n(-c2ccccc2)c(Cl)c1Cl [Compound 8] | >180 µM | 88.3 ± 9.3% |  | 
9 | O=C1NC(O)C(Cl)=C1Cl (centres unmarked) [Compound 9] | 148 µM | 0% | 117 min | stability in the plasma assay [4]: remarkably improved stability
10 | O=C1C(Cl)=C(Cl)C(O)N1Cc1ccccc1 (stereo not drawn) [Compound 10, α,β-dichloro-γ-hydroxy-N-benzyl-crotonic lactam] | 67 µM | 19.8 ± 0.4% | 32 min | growth of oncolytic HSV-1 expressing GFP [1]: increased growth; GFP counts, MG1-eGFP (MG1-eGFP in 786-0 cells): increased GFP counts; GFP counts, HSV-N212eGFP [3]: increased GFP counts; stability in the plasma assay [4]: remarkably improved stability; dose up to which well tolerated ([5]; ip): ≤ 50 mg/kg
11 | O=C1C(Cl)=C(Cl)CN1Cc1ccccc1 [Compound 11] | 332 µM | 42.5 ± 9.6% | 64 min | 
12 | COC1C(Cl)=C(Cl)C(=O)N1Cc1ccccc1 (centres unmarked) [Compound 12] | 206 µM | 47.6 ± 1.4% | 118 min | 
13 | CC(=O)OC1C(Cl)=C(Cl)C(=O)N1Cc1ccccc1 (centres unmarked) [Compound 13] | 61 µM | 0% | 21 min | 
14 | O=C1C(Cl)=C(Cl)C(=O)N1Cc1ccccc1 [Compound 14] | 104 µM | 70.2 ± 8.4% | < 5 min | 
15 | O=C1C(Cl)=C(Cl)C(O)(c2ccccc2)N1Cc1ccccc1 (centres unmarked) [Compound 15] | 66 µM | 14.9 ± 7.1% | 340 min | 
16 | O=C1C=CC(O)N1Cc1ccccc1 (centres unmarked) [Compound 16] | >360 µM | 98.2 ± 3.7% |  | 
17 | CC1=C(C)C(O)N(Cc2ccccc2)C1=O (centres unmarked) [Compound 17] | >360 µM | 82.0 ± 10.2% |  | 
18 | CCC1=C(Cl)C(=O)N(Cc2ccccc2)C1O (centres unmarked) [Compound 18] | >360 µM |  |  | 
19 | O=C1C(Cl)=C(c2ccccc2)C(O)N1Cc1ccccc1 (centres unmarked) [Compound 19] | 250 µM |  |  | 
20 | O=C1c2ccccc2C(O)N1Cc1ccccc1 (centres unmarked) [Compound 20] | >360 µM | 102.9 ± 1.6% |  | 
21 | CC(=O)NCCSC1=C(Cl)C(=O)N(Cc2ccccc2)C1O (centres unmarked) [Compound 21] | >90 µM | 102.7 ± 10.8% |  | 
22 | O=C1C(Cl)=C(Cl)C(O)N1C1CC1 (centres unmarked) [Compound 25, 3,4-dichloro-1-cyclopropyl-5-hydroxy-1H-pyrrol-2(5H)-one] | 127 µM | 54.8 ± 3.6% | 53 min | 
23 | O=C1C(Cl)=C(Cl)C(O)N1CCN1CCOCC1 (centres unmarked) [Compound 28, 3,4-dichloro-5-hydroxy-1-(2-morpholinoethyl)-1H-pyrrol-2(5H)-one] | 153 µM | 38.9 ± 5.2% | 96 min | enhancement of VSVΔ51 output in tumor specimens [2]: ~100 fold; tumor-specific viral replication (luciferase activity, IVIS) [8]: significantly enhanced; GFP counts, MG1-eGFP (MG1-eGFP in 786-0 cells): increased GFP counts; GFP counts, HSV-N212eGFP [3]: increased GFP counts; impact on VSVΔ51 in normal tissue specimens [9]: little to no impact; tolerated dose relative to parent compound 1 [5]: > 10 ×; dose up to which well tolerated ([5]; ip): up to 100 mg/kg
24 | O=C1C(Cl)=C(Cl)C(O)N1CCc1ccccc1 (centres unmarked) [Compound 29, 3,4-dichloro-5-hydroxy-1-phenethyl-1H-pyrrol-2(5H)-one] | 74 µM | 57.6 ± 6.6% | 74 min | GFP counts, MG1-eGFP (MG1-eGFP in 786-0 cells): increased GFP counts; GFP counts, HSV-N212eGFP [3]: increased GFP counts
25 | O=C1C(Cl)=C(Cl)C(O)N1Cc1ccc(C(F)(F)F)cc1 (centres unmarked) [Compound 40, 3,4-dichloro-5-hydroxy-1-(4-(trifluoromethyl)benzyl)-1H-pyrrol-2(5H)-one] | 36 µM | 15.3 ± 2.5% | 32 min | VSVΔ51-GFP titers / replication in tumor specimens [2]: enhances replication in tumors; impact on VSVΔ51 in normal tissue specimens [9]: increases infection and replication in brain tissue

Source: patent publication US20180305345A1 (priority 2015, published 2018)
